Laboratory results: US9492434B2, “Combination compositions and methods of treatment” (University of Florida Research Foundation, Inc., priority 2011, dated 2016)

Experiments:
Format in all cases: cell-based, human
[1] = system: E-Cadherin-containing complexes; assay: GST pulldown (glutathione-agarose) of E-Cadherin complexes from 231/E-Cad-GST cells, immunoblot; conditions: for stabilization of E-Cadherin/γ-Catenin complexes relative to vehicle: 10 nM Largazole, 1 μM SAHA, or 100 nM TSA (FIG. 6C)
Experimental: Cells were subjected to hypotonic lysis and membrane fractions were isolated by centrifugation for one hour at 100,000×g. The pellet was solubilized by sonication in buffer containing 2% Triton X100, 20 mM HEPES (pH 7.4), 1 mM EDTA, 1 mM EGTA, 0.1% β-mercaptoethanol, 5% glycerol, 10 nM microcystin, 200 μM Na3VO4, and 40 mM Na2H2P2O7. The membrane extract was centrifuged for one hour at 100,000×g, and the supernatant was used for E-Cadherin purifications. Complexes containing E-Cad-GST were isolated using glutathione-agarose (G4510; Sigma-Aldrich, St. Louis, Mo.), washed, and either eluted with 5 mM glutathione or eluted by boiling in SDS-PAGE sample buffer. In sequential purifications involving γ-Catenin-His6 and E-Cad-GST proteins expressed in the same cells, TALON (635503; Clontech Laboratories, Inc., Mountain View, Calif.) resin purifications were performed as described previously (Chytil et al 2004), and the 400 mM imidazole eluents were diluted ten-fold and purified using glutathione-agarose, followed by elution with 5 mM glutathione. […] Immunoprecipitations were performed as described previously (Law et al 2002) using 2 mg of total protein extract per sample and 4 μg of antibody per sample. Immunoprecipitates prepared using antibodies to E-Cadherin (610182; BD Biosciences) or GST (sc-459; Santa Cruz Biotechnology Inc.) were isolated with 35 μl per sample Protein G-Sepharose (10-1242; Invitrogen), washed, and eluted by boiling in SDS-PAGE sample buffer.
FIG. 6. […] A. Crude lysates (left panel) or GST pulldowns (right panel) from 231/E-Cad-GST cells treated for 72 hrs with 100 nM Dexamethasone, 10 nM Largazole, or Dex.+Larg. were analyzed by immunoblot. B. 231/E-Cad-GST cells were infected with an adenovirus encoding His6-tagged γ-Catenin and 231/neo cells were infected with an adenovirus encoding GFP and incubated 24 hours. The cells were then treated as indicated for 72 hrs with or without Dex.+Larg. γ-Catenin- and E-Cadherin containing complexes were isolated by sequential TALON and glutathione-agarose chromatography and analyzed by immunoblot. C. 231/E-Cad-GST cells were treated with 10 nM Largazole, 1 μM SAHA, or 100 nM TSA for 72 hrs and extracts were subjected to glutathione-agarose chromatography and the affinity purified material was analyzed by immunoblot.

CDCP1 = CDCP1 immunoblot analysis, MDA-MB-231 cells; conditions: 72 hr, Dexamethasone 100 nM, Largazole 10 nM (FIG. 5A, 5C)
[2] = system: 231/E-GFP cell line (MDA-MB-231 cells stably expressing E-Cad-GFP); assay: Fluorescence microscopy of E-Cad-GFP localization in 231/E-Cad-GFP cells; conditions: 72 hrs, 100 nM Dexamethasone, 10 nM Largazole, or both (FIG. 3A)
Experimental: Fluorescence and immunofluorescence microscopy were performed essentially as described previously (Corsino et al 2008) employing antibodies to E-Cadherin (610182; BD Bioscience) and γ-Catenin (138500; Invitrogen, Carlsbad, Calif.).
The 231/E-GFP cell line was treated with a series of small molecule signaling agonists and antagonists to identify compounds that modulate E-Cadherin localization within the cell. […] Changes in E-Cadherin localization partially overlapped with changes in γ-Catenin localization. In vitro invasion assays were performed to determine the respective effects of E-Cadherin expression and Dex.+Larg. treatment on the invasiveness of MDA-MB-231 cells.
FIG. 3. Dexamethasone and Largazole cooperate to suppress invasion and to restore E-Cadherin localization to the cell periphery. A. Fluorescence (E-Cad-GFP) or immunofluorescence microscopy (γ-Catenin (γ-Cat.)) of 231/E-Cad-GFP cells treated for 72 hrs with Vehicle (Control), 100 nM Dexamethasone, 10 nM Largazole, or 100 nM Dexamethasone+10 nM Largazole (Dex.+Larg.). […] BT549 cells were treated and analyzed by immunofluorescence microscopy as in FIG. 3A. D. BT549 cells were treated as described in FIG. 3A and analyzed for invasion as outlined in FIG. 3B.

BT549 cells = conditions: 72 hrs; 100 nM Dexamethasone, 10 nM Largazole, or both (FIG. 3D)

SMILES	stabilization of E-Cadherin/γ-Catenin complexes relative to vehicle ([1]; 231/E-Cad-GST cells, 72 hrs)	γ-Catenin binding to E-Cadherin ([1]; 231/E-Cad-GST cells, 72 hrs, 100 nM Dexamethasone or 10 nM Largazole (FIG. 6A))	levels of γ-Catenin ([1]; 231/E-Cad-GST crude lysates, 72 hrs, 10 nM Largazole (FIG. 6A))	E-Cadherin association with β-Catenin ([1]; Largazole treatment)	CDCP1 cleavage (cleaved form cCDCP1, p80) (CDCP1)	E-Cadherin localization to the cell-cell periphery [2]	invasion of BT549 cells in vitro (BT549 cells)
CC(/C=C/C(=O)NO)=C\[C@@H](C)C(=O)c1ccc(N(C)C)cc1 [TSA, Trichostatin A, reference compound]	stabilized E-Cadherin/γ-Catenin complexes to similar extents relative to vehicle treatment	–	–	–	–	–	–
O=C(CCCCCCC(=O)Nc1ccccc1)NO [SAHA, suberoylanilide hydroxamic acid, reference compound]	stabilized E-Cadherin/γ-Catenin complexes to similar extents relative to vehicle treatment	–	–	–	–	–	–
CCCCCCCC(=O)SCC/C=C/[C@@H]1CC(=O)NCc2nc(cs2)C2=N[C@@](C)(CS2)C(=O)N[C@@H](C(C)C)C(=O)O1 [Largazole, largazole]	stabilized E-Cadherin/γ-Catenin complexes to similar extents relative to vehicle treatment	preferentially increased γ-Catenin binding to E-Cadherin relative to β-Catenin binding	without changing the levels of γ-Catenin	little effect on E-Cadherin association with β-Catenin	did not influence CDCP1 cleavage	modestly increased E-Cadherin localization to the cell-cell periphery	suppressed the invasion of BT549 cells in vitro
